The text below walks through data of US20210330611A1, “THERAPY FOR NEUROLOGICAL DISEASES/DISORDERS” (priority 2020, published 2021).

Counter-ions that a name gives are not always drawn. Like-named read-outs stand apart in the source and are kept apart here.

For orientation: inhibition means the change of the read-out against control, counted positive when it falls.

Data set [1] deals with fibrin-induced microglia activation. Put plainly: Image-based assay of fibrin-induced microglia activation (HTS and dose response). It is filed as cell-based, rat. Conditions: primary microglia HTS, fibrin stimulation, compounds at 10 μM; for inhibition at 10 µM: Rattus norvegicus, Microglia, read-out: Fibrin % inhibition.
Data set [2] concerns LPS-induced microglia activation. Nature of the data set: Image-based assay of LPS-induced microglia activation (HTS and dose response). It is filed as cell-based, rat. Conditions: primary microglia HTS, LPS stimulation, compounds at 10 μM; for inhibition at 10 µM: Rattus norvegicus, Microglia, read-out: LPS % inhibition.
The subject of data set [3] is fibrin- and LPS-induced microglia activation. Put plainly: cells. It counts as cell-based, rat. Conditions: classification by fibrin and LPS inhibition, HTS at 10 μM.
The subject of data set [4] is primary rat microglia.
The subject of data set [5] is primary rat microglia. Nature of the data set: Cell toxicity (dead cells, size <150 μm2) in coated fibrin (cFib) assay.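 Further: share of dead cells sized under 150 µm2 at 10 µM in fibrin-stimulated microglia HTS.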 As to conditions: primary microglia HTS, fibrin assay, dead cells (size <150 μm2), compounds at 10 μM.

In the case of `Cn1c(=O)c2c(ncn2CC(O)CO)n(C)c1=O` (stereo not drawn) [Dyphylline], the results for the inhibition at 10 µM in data set [1] and in data set [2] were -7% and -6%, respectively. For the same compound, the “Quadrant (FIG. 5b)” value in data set [3] is on record as “Q4”. Also, in the data set with primary rat microglia [4] (rat), the “LPS % cell toxicity” value stood at 0%. The “Fibrin % cell toxicity” value with primary rat microglia [5] is given as 0%.
As for `O=c1c2ccccc2[se]n1-c1ccccc1` [Ebselen], the inhibition at 10 µM in data set [1] was -49%; in data set [2], -1%. Further, the “Quadrant (FIG. 5b)” value in data set [3] is “Q4”. The “LPS % cell toxicity” value in the data set on primary rat microglia [4] (rat) is given as 0%. Besides, in the data set with primary rat microglia [5], the “Fibrin % cell toxicity” value came to 0%.
On to `CC1(C)C2CCC1(CS(=O)(=O)O)C(=O)C2=Cc1ccc(C=C2C(=O)C3(CS(=O)(=O)O)CCC2C3(C)C)cc1` [Ecamsule], for which the Fibrin % inhibition in data set [1] was 20%. In data set [2], the LPS % inhibition was 29%. Moreover, the “Quadrant (FIG. 5b)” value in data set [3] is on record as “Q4”. Also, in the data set with primary rat microglia [4], the “LPS % cell toxicity” value was determined as 0%. Besides, the “Fibrin % cell toxicity” value in the data set with primary rat microglia [5] amounted to 1%.
Take `C[C@@H](O)CN(CCN(C[C@@H](C)O)C[C@@H](C)O)C[C@@H](C)O` [Editol]: the Fibrin % inhibition in data set [1] was determined as 24%. The LPS % inhibition in data set [2] is 3%. The “Quadrant (FIG. 5b)” value in data set [3] is reported as “Q4”. Also, the “LPS % cell toxicity” value with primary rat microglia [4] was found to be 0%. The “Fibrin % cell toxicity” value with primary rat microglia [5] worked out at 1%.
With `CCc1cn([C@H]2C[C@H](O)[C@@H](CO)O2)c(=O)[nH]c1=O` [Edoxudine], the values for the inhibition at 10 µM in data set [1] and in data set [2] were -10% and 1%, respectively. Also, the “Quadrant (FIG. 5b)” value in data set [3] is reported as “Q4”. In the data set with primary rat microglia [4] (rat), the “LPS % cell toxicity” value is listed as 0%. In the data set with primary rat microglia [5], the “Fibrin % cell toxicity” value stood at 0%.
In the case of `CC[N+](C)(C)c1cccc(O)c1` [Edrophonium], the inhibition at 10 µM was -9% in data set [1] and -2% in data set [2]. In data set [3], the “Quadrant (FIG. 5b)” value was “Q4”. In the data set on primary rat microglia [4] (rat), the “LPS % cell toxicity” value amounted to 0%. In addition, in the data set with primary rat microglia [5], the “Fibrin % cell toxicity” value is on record as 1%.
`CCC1(C2=NCCN2)Cc2ccccc2O1` (stereo not drawn) [Efaroxan, Efaroxan Hydrochloride]: the Fibrin % inhibition in data set [1] amounted to 1%. Moreover, the LPS % inhibition in data set [2] was determined as 5%. Besides, in data set [3], the “Quadrant (FIG. 5b)” value is “Q4”. Moreover, the “LPS % cell toxicity” value with primary rat microglia [4] came to 0%. Further, the “Fibrin % cell toxicity” value with primary rat microglia [5] is recorded as 1%.
In the case of `O=C1Nc2ccc(Cl)cc2[C@@](C#CC2CC2)(C(F)(F)F)O1` [Efavirenz], the inhibition at 10 µM in data set [1] is -7%; in data set [2], -5%. The “Quadrant (FIG. 5b)” value in data set [3] was “Q4”. In addition, the “LPS % cell toxicity” value in the data set on primary rat microglia [4] (rat) is reported as 0%. For the same compound, the “Fibrin % cell toxicity” value in the data set with primary rat microglia [5] was found to be 1%.
Regarding `CCOC(=O)COc1ccc2c(=O)cc(-c3ccccc3)oc2c1` [Efloxate], the inhibition at 10 µM in data set [1] is -8%; in data set [2], -1%. The “Quadrant (FIG. 5b)” value in data set [3] is reported as “Q4”. For the same compound, the “LPS % cell toxicity” value in the data set with primary rat microglia [4] (rat) amounted to 0%. Besides, the “Fibrin % cell toxicity” value in the data set on primary rat microglia [5] worked out at 1%.
As for `CN1CCC[C@@H]1Cc1c[nH]c2ccc(CCS(=O)(=O)c3ccccc3)cc12` [Eletriptan Hydrobromide], the values for the inhibition at 10 µM in data set [1] and in data set [2] were -14% and 12%, respectively. Also, in data set [3], the “Quadrant (FIG. 5b)” value is recorded as “Q4”. Moreover, in the data set with primary rat microglia [4] (rat), the “LPS % cell toxicity” value is listed as 0%. Further, in the data set with primary rat microglia [5], the “Fibrin % cell toxicity” value stood at 1%.
For the compound `CC(=O)[C@H]1CC[C@H]2[C@@H]3CC[C@@H]4C[C@H](O)CC[C@]4(C)[C@H]3CC[C@]12C` [Eltanolone], the inhibition at 10 µM in data set [1] was -6%; in data set [2], 4%. In addition, the “Quadrant (FIG. 5b)” value in data set [3] is “Q4”. The “LPS % cell toxicity” value in the data set with primary rat microglia [4] (rat) is given as 0%. The “Fibrin % cell toxicity” value in the data set on primary rat microglia [5] is reported as 1%.
As to `C=CCOC(Cn1ccnc1)c1ccc(Cl)cc1Cl` (stereo not drawn) [Enilconazole], the inhibition at 10 µM worked out at 24% in data set [1] and 15% in data set [2]. Moreover, in data set [3], the “Quadrant (FIG. 5b)” value is listed as “Q4”. In addition, the “LPS % cell toxicity” value in the data set on primary rat microglia [4] (rat) is on record as 1%. In addition, the “Fibrin % cell toxicity” value in the data set on primary rat microglia [5] is listed as 1%.
Regarding `O=C(NCCCN1CCOCC1)c1ccc(Cl)cc1` [Eprobemide], the inhibition at 10 µM was -24% in data set [1] and 21% in data set [2]. Besides, the “Quadrant (FIG. 5b)” value in data set [3] is “Q4”. For the same compound, the “LPS % cell toxicity” value in the data set with primary rat microglia [4] (rat) was 0%. Further, in the data set on primary rat microglia [5], the “Fibrin % cell toxicity” value is 0%.
Regarding `O=S(=O)([O-])CCCS(=O)(=O)[O-].[Na+].[Na+]` [Eprodisate Disodium], in data set [1], the Fibrin % inhibition is reported as −3%. Further, the LPS % inhibition in data set [2] was 12%. For the same compound, the “Quadrant (FIG. 5b)” value in data set [3] is on record as “Q4”. Besides, the “LPS % cell toxicity” value in the data set with primary rat microglia [4] amounted to 0%. Besides, the “Fibrin % cell toxicity” value with primary rat microglia [5] is recorded as 1%.
On to `CCCCc1ncc(/C=C(\Cc2cccs2)C(=O)O)n1Cc1ccc(C(=O)O)cc1` [Eprosartan], for which the inhibition at 10 µM in data set [1] is -29%; in data set [2], -8%. In data set [3], the “Quadrant (FIG. 5b)” value is listed as “Q4”. Moreover, the “LPS % cell toxicity” value with primary rat microglia [4] (rat) came out at 0%. Also, the “Fibrin % cell toxicity” value in the data set on primary rat microglia [5] is 1%.
Turning to `C[C@]12CC[C@H]3C(=CCc4cc(O)ccc43)[C@@H]1CCC2=O` [Equilin], the inhibition at 10 µM in data set [1] came out at 1%; in data set [2], 15%. Further, in data set [3], the “Quadrant (FIG. 5b)” value was “Q4”. Further, the “LPS % cell toxicity” value with primary rat microglia [4] (rat) was determined as 0%. Also, in the data set with primary rat microglia [5], the “Fibrin % cell toxicity” value was determined as 0%.
In the case of `O=C(O)CSCC(=O)NC1CCSC1=O` (stereo not drawn) [Erdosteine], the inhibition at 10 µM in data set [1] was determined as 2%; in data set [2], 13%. The “Quadrant (FIG. 5b)” value in data set [3] is listed as “Q4”. Also, the “LPS % cell toxicity” value in the data set with primary rat microglia [4] (rat) is listed as 0%. In addition, the “Fibrin % cell toxicity” value in the data set with primary rat microglia [5] is reported as 1%.
Regarding `C[C@@H](CO)NC(=O)[C@@H]1C=C2c3cccc4[nH]cc(c34)C[C@H]2N(C)C1` [Ergonovine Maleate], the Fibrin % inhibition in data set [1] (10 µM) is 9%. For the same compound, in data set [2] (10 µM), the LPS % inhibition amounted to 7%. For the same compound, the “Quadrant (FIG. 5b)” value in data set [3] is “Q4”. Moreover, the “LPS % cell toxicity” value in the data set with primary rat microglia [4] (rat) worked out at 0%. The “Fibrin % cell toxicity” value with primary rat microglia [5] came out at 1%.
In the case of `C[C@@H](CO)NC(=O)[C@@H]1C=C2c3cccc4[nH]cc(c34)C[C@H]2N(C)C1` [Ergonovine], the Fibrin % inhibition in data set [1] (10 µM) is −23%. Besides, in data set [2] (10 µM), the LPS % inhibition is recorded as −10%. In addition, in data set [3], the “Quadrant (FIG. 5b)” value is reported as “Q4”. For the same compound, the “LPS % cell toxicity” value in the data set with primary rat microglia [4] (rat) was found to be 0%. Besides, the “Fibrin % cell toxicity” value with primary rat microglia [5] is 1%.
The matching figures for `CN1C[C@H](C(=O)N[C@]2(C)O[C@@]3(O)[C@@H]4CCCN4C(=O)[C@H](Cc4ccccc4)N3C2=O)C=C2c3cccc4[nH]cc(c34)C[C@H]21` [Ergotamine Tartrate]: 31%, 22%, “Q4”, 1% and 0%.
For the compound `CN1C[C@H](C(=O)N[C@]2(C)O[C@@]3(O)[C@@H]4CCCN4C(=O)[C@H](Cc4ccccc4)N3C2=O)C=C2c3cccc4[nH]cc(c34)C[C@H]21` [Ergotamine], in data set [1] (10 µM), the Fibrin % inhibition is 6%. In data set [2] (10 µM), the LPS % inhibition was −4%. Moreover, the “Quadrant (FIG. 5b)” value in data set [3] was “Q4”. In addition, the “LPS % cell toxicity” value with primary rat microglia [4] (rat) was found to be 0%. Also, the “Fibrin % cell toxicity” value with primary rat microglia [5] was 1%.
As for `OC[C@@H](O)[C@@H](O)CO` [Erythritol], the figures for the inhibition at 10 µM in data set [1] and in data set [2] were -25% and 10%, respectively. Besides, the “Quadrant (FIG. 5b)” value in data set [3] was “Q4”. Also, the “LPS % cell toxicity” value in the data set with primary rat microglia [4] (rat) was 0%. In the data set with primary rat microglia [5], the “Fibrin % cell toxicity” value worked out at 1%.
The matching figures for `CCOC(=O)CCC(=O)O[C@H]1[C@H](O[C@@H]2[C@@H](C)[C@H](O[C@H]3C[C@@](C)(OC)[C@@H](O)[C@H](C)O3)[C@@H](C)C(=O)O[C@H](CC)[C@@](C)(O)[C@H](O)[C@@H](C)C(=O)[C@H](C)C[C@@]2(C)O)O[C@H](C)C[C@@H]1N(C)C` [Erythromycin Ethylsuccinate]: -14%, 14%, “Q4”, 0% and 0%.
Regarding `CCC(=O)O[C@H]1[C@H](O[C@@H]2[C@@H](C)[C@H](O[C@H]3C[C@@](C)(OC)[C@@H](O)[C@H](C)O3)[C@@H](C)C(=O)O[C@H](CC)[C@@](C)(O)[C@H](O)[C@@H](C)C(=O)[C@H](C)C[C@@]2(C)O)O[C@H](C)C[C@@H]1N(C)C` [Erythromycin Propionate], the inhibition at 10 µM was 23% in data set [1] and 27% in data set [2]. Moreover, in data set [3], the “Quadrant (FIG. 5b)” value was “Q4”. In addition, the “LPS % cell toxicity” value in the data set on primary rat microglia [4] (rat) is listed as 0%. The “Fibrin % cell toxicity” value in the data set with primary rat microglia [5] stood at 1%.
As to `O=C1OC2(c3ccccc31)c1cc(I)c(O)c(I)c1Oc1c2cc(I)c(O)c1I` [Erythrosine Sodium], the inhibition at 10 µM in data set [1] amounted to 1%; in data set [2], 0%. For the same compound, the “Quadrant (FIG. 5b)” value in data set [3] is “Q4”. Further, the “LPS % cell toxicity” value with primary rat microglia [4] (rat) came to 0%. The “Fibrin % cell toxicity” value in the data set on primary rat microglia [5] was 1%.
As to `COC(=O)CCc1ccc(OCC(O)CNC(C)C)cc1` (stereo not drawn) [Esmolol, Esmolol Hydrochloride], the Fibrin % inhibition in data set [1] is −15%. Moreover, the LPS % inhibition in data set [2] came out at 2%. The “Quadrant (FIG. 5b)” value in data set [3] was “Q4”. Besides, the “LPS % cell toxicity” value in the data set on primary rat microglia [4] turned out to be 0%. Further, in the data set on primary rat microglia [5], the “Fibrin % cell toxicity” value is 1%.
As to `C[C@]12CC[C@@H]3c4ccc(OC(=O)c5ccccc5)cc4CC[C@H]3[C@@H]1CC[C@@H]2O` [Estradiol Benzoate], the inhibition at 10 µM was -3% in data set [1] and 8% in data set [2]. Further, the “Quadrant (FIG. 5b)” value in data set [3] is “Q4”. Also, the “LPS % cell toxicity” value in the data set with primary rat microglia [4] (rat) stood at 0%. Besides, the “Fibrin % cell toxicity” value in the data set on primary rat microglia [5] was 1%.
